{"source": "paper PMC12580772", "about": "“A First-in-Human Study of ATM Inhibitor Lartesertib as Monotherapy in Patients with Advanced Solid Tumors” (Clinical Cancer Research, 2025)", "key": {"[1]": {"system": "ctDNA somatic variant allele frequency", "assay": "Plasma ctDNA next-generation sequencing (Guardant Health OMNI panel), molecular response", "format": "in vivo, human", "conditions": "21 evaluable patients", "experimental": "(§1) Circulating immune factors (e.g., IFN-β, IFN-γ, IL-1β, IL-2, IL-4, IL-6, IL-8, IL-10, IL-12p70, IL-13, TNF-α, and NKG2DL) were assessed using immunofluorescence assays. Additionally, blood samples were tested for plasma ctDNA by next-generation sequencing at Guardant Health using the OMNI panel. This analysis was conducted to evaluate surrogate markers of tumor dynamics, sensitivity, and resistance to treatment. Molecular response (MR) was assessed and defined as strongest change of—per visit averaged—somatic variant allele frequency (VAF) against the pretreatment level as follows: Best delta mean VAF = MIN (meanVAFvisiti – meanVAFpretreatment / meanVAFpretreatment)"}, "[2]": {"system": "patient-derived xenograft models of triple-negative breast cancer", "set-up": "method as in PMID 37079339", "conditions": "lartesertib in combination with gartisertib; cited from earlier work"}, "[3]": {"system": "acute myeloid leukemia model Mv4.11", "set-up": "method as in PMID 37079339", "conditions": "combination with the ATR inhibitor gartisertib; cited from earlier work"}, "[4]": {"system": "patients with advanced solid tumors", "set-up": "method as in PMID 38407317", "conditions": "combination of lartesertib and tuvusertib; cited from earlier work"}, "[5]": {"system": "MiaPaCa2 pancreatic cancer model", "set-up": "method as in PMID 37079339", "conditions": "combination with the ATR inhibitor gartisertib; cited from earlier work"}, "[6]": {"system": "HBC-x9 triple-negative breast cancer model", "set-up": "method as in PMID 35405736", "conditions": "combined with PARP inhibitors (rucaparib or niraparib), wild-type BRCA1/2; cited from earlier work"}, "[7]": {"system": "immune cell subsets and circulating immune factors", "assay": "Immunophenotyping by flow cytometry and circulating immune factors", "format": "in vivo, human", "experimental": "Serial blood samples collected at each visit were tested for total blood cell counts and immune cell subsets (e.g., T cells, B cells, and NK cells) to evaluate immunophenotyping by flow cytometry.\nas §1"}, "[8]": {"system": "advanced solid tumors", "assay": "Efficacy: tumor response and PFS by RECIST version 1.1", "format": "in vivo, human", "excerpt": "The primary endpoints were the occurrence of DLTs, adverse events (AE), and treatment-related and treatment-emergent AEs (TEAE), along with the occurrence of clinically significant changes in vital signs, laboratory parameters, and 12-lead electrocardiogram findings. The secondary endpoints included PK parameters of lartesertib in plasma after single and multiple doses; establishment of the recommended dose for expansion based on safety, PK, and PD data; absolute and relative changes overtime from baseline in ATM pathway readouts assessed by flow cytometry and immunohistochemistry; and objective response, duration of response, and progression-free survival (PFS) according to the RECIST version 1.1, as assessed by the investigator. Exploratory endpoints included the correlation of baseline and on-treatment biomarkers with response to lartesertib treatment as well as relative changes in total blood cell count, immune cells, and circulatory factors during exposure to lartesertib.\nFor the efficacy analysis, the proportion of patients with objective response, defined as radiologic complete response (CR) + partial response, was tabulated, and the 95% confidence interval (CI) was estimated using the Clopper–Pearson method. PFS was estimated using the Kaplan–Meier method. The median PFS time and rate estimates at 3, 6, and 12 months, as well as every 6 months thereafter, were also summarized."}, "[9]": {"system": "cancer cell lines (head and neck, colon, lung, gastric, breast, and melanoma)", "set-up": "method as in PMID 35405736", "conditions": "in vitro; cited from earlier work"}, "[10]": {"system": "human squamous cell carcinoma of the head and neck FaDu xenograft", "set-up": "method as in PMID 35405736", "conditions": "in combination with radiation; cited from earlier work"}}, "data": [{"smiles": "COc1cc2ncc3c(c2cc1-c1cn(C)nc1C)n(-c1c(F)cncc1OC)c(=O)n3C", "note": "[lartesertib]", "values": [{"measurement": "Patients with molecular response (ctDNA VAF decrease of ≥50% from baseline)", "setting": "[1]", "value": "four patients of 21 evaluable patients"}, {"measurement": "Tumor control rate", "setting": "[2]", "value": 42, "unit": "%"}, {"measurement": "Tumor growth", "setting": "[3]", "value": "almost complete tumor regression"}, {"measurement": "Patients experiencing SD for >16 weeks", "setting": "[4]", "value": "six of 42"}, {"measurement": "Tumor growth", "setting": "[5]", "value": "complete tumor growth inhibition"}, {"measurement": "Efficacy and tolerability", "setting": "[6]", "value": "enhanced efficacy and acceptable tolerability"}, {"measurement": "NK cell subsets", "setting": "[7]; across all DLs", "value": "negative trend"}, {"measurement": "Cytokine modulation (IFN-γ, IL-10, IL-6, IL-8, and TNF-α)", "setting": "[7]; among different DLs", "value": "No relevant trends"}, {"measurement": "Levels of most explored immune cell subsets", "setting": "[7]; tested DLs, incl. myeloid-derived suppressor cells, T and B lymphocytes", "value": "did not cause any significant change"}, {"measurement": "Best overall response: Non-complete response/non-progressive disease", "setting": "[8]; 100 mg n = 2", "value": "1 (50.0) n (%)"}, {"measurement": "Best overall response: Not evaluable", "setting": "[8]; 100 mg n = 2", "value": "1 (50.0) n (%)"}, {"measurement": "Best overall response: Progressive disease", "setting": "[8]; 100 mg n = 2", "value": "0 (0.0) n (%)"}, {"measurement": "Best overall response: Stable disease", "setting": "[8]; 100 mg n = 2", "value": "0 (0.0) n (%)"}, {"measurement": "Progressive disease/Deaths (PFS events)", "setting": "[8]; 100 mg n = 2", "value": "0 (0.0) n (%)"}, {"measurement": "PFS, median (min, max)", "setting": "[8]; 100 mg n = 2, NC, noncalculable", "value": "NC (1.2,4.0)"}, {"measurement": "Best overall response: Non-complete response/non-progressive disease", "setting": "[8]; 200 mg n = 7", "value": "0 (0.0) n (%)"}, {"measurement": "Best overall response: Not evaluable", "setting": "[8]; 200 mg n = 7", "value": "2 (28.6) n (%)"}, {"measurement": "Best overall response: Progressive disease", "setting": "[8]; 200 mg n = 7", "value": "5 (71.4) n (%)"}, {"measurement": "Best overall response: Stable disease", "setting": "[8]; 200 mg n = 7", "value": "0 (0.0) n (%)"}, {"measurement": "PFS, median (min, max)", "setting": "[8]; 200 mg n = 7", "value": "1.1 (0.0, 1.6) months"}, {"measurement": "Progressive disease/Deaths (PFS events)", "setting": "[8]; 200 mg n = 7", "value": "6 (85.7) n (%)"}, {"measurement": "Best overall response: Non-complete response/non-progressive disease", "setting": "[8]; 300 mg n = 9", "value": "0 (0.0) n (%)"}, {"measurement": "Best overall response: Not evaluable", "setting": "[8]; 300 mg n = 9", "value": "2 (22.2) n (%)"}, {"measurement": "Best overall response: Progressive disease", "setting": "[8]; 300 mg n = 9", "value": "6 (66.7) n (%)"}, {"measurement": "Best overall response: Stable disease", "setting": "[8]; 300 mg n = 9", "value": "1 (11.1) n (%)"}, {"measurement": "PFS, median (min, max)", "setting": "[8]; 300 mg n = 9", "value": "1.3 (0.0, 4.1) months"}, {"measurement": "Progressive disease/Deaths (PFS events)", "setting": "[8]; 300 mg n = 9", "value": "7 (77.8) n (%)"}, {"measurement": "Best overall response: Non-complete response/non-progressive disease", "setting": "[8]; 400 mg n = 4", "value": "0 (0.0) n (%)"}, {"measurement": "Best overall response: Not evaluable", "setting": "[8]; 400 mg n = 4", "value": "2 (50.0) n (%)"}, {"measurement": "Best overall response: Progressive disease", "setting": "[8]; 400 mg n = 4", "value": "1 (25.0) n (%)"}, {"measurement": "Progressive disease/Deaths (PFS events)", "setting": "[8]; 400 mg n = 4", "value": "1 (25.0) n (%)"}, {"measurement": "PFS, median (min, max)", "setting": "[8]; 400 mg n = 4, NC, noncalculable", "value": "NC (0.0, 2.8)"}, {"measurement": "Best overall response: Non-complete response/non-progressive disease", "setting": "[8]; Total N = 22", "value": "1 (4.5) n (%)"}, {"measurement": "Best overall response: Not evaluable", "setting": "[8]; Total N = 22", "value": "7 (31.8) n (%)"}, {"measurement": "Best overall response: Progressive disease", "setting": "[8]; Total N = 22", "value": "12 (54.5) n (%)"}, {"measurement": "Best overall response: Stable disease", "setting": "[8]; Total N = 22", "value": "2 (9.1) n (%)"}, {"measurement": "PFS, median (min, max)", "setting": "[8]; Total N = 22", "value": "1.3 (0.0, 4.1) months"}, {"measurement": "Progressive disease/Deaths (PFS events)", "setting": "[8]; Total N = 22", "value": "14 (63.6) n (%)"}, {"measurement": "Median PFS", "setting": "[8]; all patients, Kaplan–Meier", "value": "1.3 (95% CI, 0.99–1.58) months"}, {"measurement": "Best overall response stable disease", "setting": "[8]; of 22 patients", "value": 9.1, "unit": "%"}, {"measurement": "Progressive disease", "setting": "[8]; of 22 patients", "value": 54.5, "unit": "%"}, {"measurement": "Non-CR/non–progressive disease", "setting": "[8]; of 22 patients, prostate gland cancer", "value": 4.5, "unit": "%"}, {"measurement": "Duration of stable disease", "setting": "[8]; patient with nasopharyngeal cancer", "value": 120, "unit": "days"}, {"measurement": "Radiotherapy sensitivity of cancer cell lines", "setting": "[9]", "value": "enhances the radiotherapy sensitivity"}, {"measurement": "Antitumor response", "setting": "[10]", "value": "significant dose-dependent antitumor responses"}]}]}
